Data as given in PMC9861162 (Pharmaceuticals, 2022).
Entries after “also recorded” stand apart in the source; their conditions may differ. Where two headings read alike, the source gives them in different places.

What was measured:
[1] = dapaconazole PBPK model in dogs (Simcyp); design: species or system dog
Method: A PBPK model was first developed in dogs using a hybrid PBPK approach employing the in vivo clearance reported in dogs. The input parameters are described in Table 4.
Then, the full PBPK model, which used the method 2 (Rodgers and Rowland [15]) to predict the volume of distribution at steady-state conditions (Vss) was evaluated.
All modeling was conducted using Simcyp modeling software (v. 20, Certara, Princeton, NJ, US). […] All of the input parameters are described in Table 4.
The Simcyp minimal PBPK, which considers all organs other than the intestine and liver as a single compartment, plus a SAC distribution model were selected. […] The Vss was predicted using Rodgers and Rowland’s equations (method 2). A Kp scalar was determined to best describe the observed dog data using a sensitivity analysis approach. The final values of Vsac, kin, and kout were determined from the parameter estimation approach selecting the best values to describe the shape of the observed PK profile. For the elimination model development, the in vivo systemic clearance values reported in dogs were employed in a middle-out approach. […] The PBPK model was evaluated through a visual comparison of observed in vivo plasma concentration–time profiles with the concentrations predicted in dogs, and the PK parameters within observed/predicted ratios between 0.5-fold to 2-fold were considered acceptable.

CYP3A4/5 = experiment: in vitro CYP450 metabolism inhibition assay in human liver microsomes, CYP3A (midazolam or nifedipine)
Method: (§1) The incubation conditions employed for each CYP450 isoform were performed, as previously described.
(§2) Buffer solution (0.1 mol/L aqueous phosphate buffer, pH 7.4, 69 µL), NADPH-regenerating solutions (10 µL solution A: 26 mmol/L NADP+, 66 mmol/L glucose-6-phosphate, and 66 mmol/L MgCl2; 2 µL solution B: 40 U/mL glucose-6-phosphate dehydrogenase in 5 mmol/L sodium citrate), and deionized water (69 µL) were added, in a total volume of 150 μL. The tubes were vortex-mixed and preincubated with continuous gentle shaking for 5 min at 37 °C in a shaking water bath. Reactions were initiated by the addition of 50 µL of HLM solution in the tubes which were gently mixed by hand and incubated with continuous gentle shaking at 37 °C. Aliquots of 200 µL ice-cold solvent (Table 1) containing IS (1 µg/mL) were added. […] The supernatants were transferred to glass autosampler vials and submitted to LC-MS/MS analysis (5 µL injection volume) to monitor the substrate metabolite formation.

[2] = tested on: several pathogenic fungi, such as Tricophyton verrucosum, Tricophyton rubrum, Trycophyton mantagrophutes, Microsporum gypseum, Microsporum canis, and …; conditions: ref [1]-[7]; cited from earlier work
[3] = design: method as in Antunes et al. [14]; conditions: dog plasma; ref Antunes et al. [14]; cited from earlier work
[4] = all trials; ref [3],[4],[5]; cited from earlier work
CYP2A6 = biological target: T1, CYP2A6 (Homo sapiens, UniProt P11509); experiment: in vitro CYP450 metabolism inhibition assay in human liver microsomes, CYP2A6 (coumarin); conditions: microsomes
T1 sequence (P11509 1-494): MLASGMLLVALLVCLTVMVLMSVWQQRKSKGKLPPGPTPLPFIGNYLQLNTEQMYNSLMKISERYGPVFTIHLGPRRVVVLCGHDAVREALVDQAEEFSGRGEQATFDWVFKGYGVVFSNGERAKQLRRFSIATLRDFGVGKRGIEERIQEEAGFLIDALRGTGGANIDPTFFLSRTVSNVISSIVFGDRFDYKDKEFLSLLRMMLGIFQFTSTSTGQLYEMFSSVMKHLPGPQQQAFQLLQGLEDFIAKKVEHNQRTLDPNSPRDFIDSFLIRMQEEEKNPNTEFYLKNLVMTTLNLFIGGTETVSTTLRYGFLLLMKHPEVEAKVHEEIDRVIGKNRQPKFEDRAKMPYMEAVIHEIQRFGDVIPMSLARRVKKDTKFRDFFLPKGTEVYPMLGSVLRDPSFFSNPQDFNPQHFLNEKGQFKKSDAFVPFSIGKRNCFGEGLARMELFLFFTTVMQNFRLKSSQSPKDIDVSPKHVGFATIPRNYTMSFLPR
Method: as §1, §2

CYP2C19 = CYP2C19 (Homo sapiens, UniProt P33261); experiment: clinical DDI prediction, static (IVIVE) and dynamic (PBPK) models, CYP2C19
From the text: (§3) The Ki input values were estimated from the ratio IC50/2. Since the IC50 experiments were designed considering the substrate concentration equal to Km, the simplification of Ki as IC50/2 was considered for a competitive inhibition reaction.
(§4) The following Equation (4) was considered for the potential DDI evaluation:(4) AUCR=AUCwith inhibitor/AUCwithout inhibitor where AUCR is the area under the curve ratio, AUCwith inhibitor is AUC in the presence of the inhibitor, and AUCwithout inhibitor is AUC in the absence of the inhibitor.

interdigital tinea pedis = conditions: ref [3]; cited from earlier work
[5] = design: method as in Drugbank; conditions: PBPK input; ref Drugbank; cited from earlier work
pityriasis versicolor = conditions: ref [5]; cited from earlier work
CYP3A4 = experiment: clinical DDI prediction, static (IVIVE) and dynamic (PBPK) models, CYP3A4; conditions: for FDA Classification as CYP inhibitor: higher of static and dynamic AUCR; for R1: reversible inhibition
From the text: as §3, §4

[6] = dogs, observed, ref Palo et al. [7], cited from earlier work

Sequence of CYP2C19 (P33261 whole entry): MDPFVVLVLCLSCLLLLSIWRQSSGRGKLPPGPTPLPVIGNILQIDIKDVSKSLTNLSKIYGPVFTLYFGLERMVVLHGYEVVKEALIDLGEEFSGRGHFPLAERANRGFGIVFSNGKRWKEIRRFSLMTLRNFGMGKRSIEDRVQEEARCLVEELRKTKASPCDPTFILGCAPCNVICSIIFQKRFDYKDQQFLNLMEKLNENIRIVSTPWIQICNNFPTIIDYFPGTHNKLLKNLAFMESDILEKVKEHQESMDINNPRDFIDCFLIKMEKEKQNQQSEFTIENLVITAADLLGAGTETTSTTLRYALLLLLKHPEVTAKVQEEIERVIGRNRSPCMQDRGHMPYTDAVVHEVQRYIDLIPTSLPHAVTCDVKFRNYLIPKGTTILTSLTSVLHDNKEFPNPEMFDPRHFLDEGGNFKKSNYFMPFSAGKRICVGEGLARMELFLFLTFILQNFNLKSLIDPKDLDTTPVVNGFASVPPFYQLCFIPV

## FC(F)(F)c1ccc(COC(Cn2ccnc2)c2ccc(Cl)cc2Cl)cc1 (centres unmarked) [dapaconazole, Dapaconazole]
[1]; intravenous 1 mg/kg
  AUC0-t Observed/predicted ratio: 0.83
  CL Observed/predicted ratio: 1.29
  Cmax Observed/predicted ratio: 0.92
  t1/2 Terminal Observed/predicted ratio: 1.08
[1]; intravenous 2 mg/kg
  AUC0-t Observed/predicted ratio: 1.27
  CL Observed/predicted ratio: 1.09
  Cmax Observed/predicted ratio: 1.78
  t1/2 Terminal Observed/predicted ratio: 1.29
[1]; intravenous 20 mg/kg
  AUC0-t Observed/predicted ratio: 0.65
  CL Observed/predicted ratio: 1.54
  Cmax Observed/predicted ratio: 0.58
  t1/2 Terminal Observed/predicted ratio: 1.04
CYP3A4/5; HLM, 3A4, range over midazolam and nifedipine substrates
  IC50: 8 to 30 nM
CYP3A4/5; HLM, midazolam as substrate, figure in parentheses not defined
  IC50: 7.69 nM
CYP3A4/5; Ki = IC50/2, substrate midazolam
  Ki: 4 nM
CYP3A4/5; microsomes
  IC50: 30.3 nM
[2]
  antifungal activity: antifungal activity
[3]
  Unbound fraction: 0.037
[4]
  safety profile: good safety profile
CYP2A6
  IC50: 20700 nM
CYP2C19
  DDI potential from Ki and R1 values: high potential
CYP2C19; reversible inhibition, substrate S-mephenytoin
  R1: 15.14
Interdigital tinea pedis
  efficacy compared with ketoconazole: noninferior efficacy
[5]
  log P: 5.63
  pKa (monoprotic base): 6.77
Pityriasis versicolor
  efficacy compared with ketoconazole: noninferior efficacy
CYP3A4; CYP3A
  DDI potential from Ki and R1 values: high potential
CYP3A4; CYP3A4, substrate midazolam
  FDA Classification as CYP inhibitor: Strong (AUCR ≥ 5: strong inhibitor)
CYP3A4; CYP3A4, substrate nifedipine
  FDA Classification as CYP inhibitor: Strong (AUCR ≥ 5: strong inhibitor)
CYP3A4; CYP3A overall
  FDA Classification as CYP inhibitor: strong inhibitor; also recorded: moderate to strong inhibition
CYP3A4; substrate midazolam
  R1: 98.26
CYP3A4; substrate nifedipine
  R1: 25.70
[6]; intravenous 1 mg/kg
  AUC0-t: 255.0 ng·h/mL
  CL: 700.0 mL/min
  Cmax: 373.2 ng/mL
  t1/2 Terminal: 2.1 h
[6]; intravenous 2 mg/kg
  AUC0-t: 779.9 ng·h/mL
  CL: 591.7 mL/min
  Cmax: 1444.7 ng/mL
  t1/2 Terminal: 2.5 h
[6]; intravenous 20 mg/kg
  AUC0-t: 4780.1 ng·h/mL
  CL: 700.0 mL/min
  Cmax: 4708.3 ng/mL
  t1/2 Terminal: 2.3 h
